This note sets out measurements from US10005767B2, “Compositions and methods for inhibition of the JAK pathway” (Rigel Pharmaceuticals, Inc., priority 2009, dated 2018).

In general, IC50 refers to the point on the concentration scale where inhibition reaches its midpoint.

The assay deals with human primary T-cells, IL-2 stimulated proliferation (JAK-1 and JAK-3 dependent; reported as JAK3 activity). The assay is described as follows: Human primary T-cell proliferation stimulated by IL-2 (Example 3). Particulars: tested under conditions described in Example 3 (IL-2 stimulated human primary T-cell proliferation), read-out: ability to inhibit JAK3 activity, IC50 range (Table V). Format: cell-based. The text has this: The activity of the compounds described herein can further be characterized by assaying the effect of the 2,4-pyrimidinediamine compounds described herein on the proliferative response of primary human T-cells. In this assay, primary human T-cells derived from peripheral blood and pre-activated through stimulation of the T-cell receptor and CD28, proliferate in culture in response to the cytokine Interleukin-2 (IL-2). This proliferative response is dependent on the activation of JAK1 and JAK3 tyrosine kinases, which phosphorylate and activate the transcription factor Stat-5. The primary human T-cells are incubated with the 2,4-pyrimidinediamine compounds in the presence of IL-2 for 72 hours, and at the assay endpoint intracellular ATP concentrations are measured to assess cell viability. A reduction in cell proliferation compared to control conditions is indicative of inhibition of the JAK kinase pathway.
Primary human T-cells derived from peripheral blood and pre-activated through stimulation of the T-cell receptor and CD28, proliferate in vitro in response to the cytokine Interleukin-2 (IL-2). This proliferative response is dependent on the activation of JAK-1 and JAK-3 tyrosine kinases, which phosphorylate and activate the transcription factor Stat-5.
Human primary T cells were prepared as follows. […] The lymphocytes at the serum: ficoll interface were recovered and washed twice with 5 volumes of PBS. […] The primary T-cells were stimulated for 3-4 days, then transferred to a fresh flask and maintained in RPMI with 10% FBS and 40 U/mL IL-2.
The day prior to the assay set up, primary T-cells were centrifuged and resuspended in fresh RPMI with 10% FBS but without IL-2 and starved overnight. For the assay, the primary T-cells were centrifuged and resuspended Yssel's medium at 2×10^6 cells/mL. 50 μL of cell suspension containing 80 U/mL IL-2 was added to each well of a flat bottom 96 well black plate. For the unstimulated control, IL-2 was omitted from the last column on the plate. […] 50 μL of 2× compound was added per well in duplicate and the cells were allowed to proliferate for 72 hours at 37° C.
Proliferation was measured using CellTiter-Glo® Luminescent Cell Viability Assay (Promega), which determines the number of viable cells in culture based on quantitation of the ATP present, as an indicator of metabolically active cells. The substrate was thawed and allowed to come to ambient temperature. After mixing the Cell Titer-Glo reagent and diluent together, 100 μL was added to each well. The plates were mixed on an orbital shaker for two minutes to induce lysis and incubated at ambient temperature for an additional ten minutes to allow the signal to equilibrate.
The compound designations in Table V are consistent with those of Tables I-IV above.

Molecules are shown by their SMILES. Where a name gives a salt, the structure may show the parent alone. Read-outs that look alike come from different tables or passages of the source.

For `COC(=O)N1CCN(c2ccc(Nc3ncc(C)c(Nc4ccc5oc(=O)[nH]c5c4)n3)cn2)CC1` [II-9, N4-(benzo[d]oxazol-2(3H)-on-5-yl)-N2-(6-(4-methoxycarbonylpiperazin-1-yl)pyridin-3-yl)-5-methylpyrimidine-2,4-diamine], the half-inhibitory concentration (IC50) (Homo sapiens, T-cell) was less than 0.5 µM.

With `Cc1cnc(Nc2ccc(N3CCC4(CCN(C)C4)C3)nc2)nc1Nc1ccc2oc(=O)[nH]c2c1` (centres unmarked) [II-133, 5-methyl-N2-[2-(7-methyl-2,7-diazaspiro[4.4]nonan-2-yl)pyridin-5-yl]-N4-(2-oxo-2,3-dihydro-1,3-benzoxazol-5-yl)-2,4-pyrimidinediamine], the IC50 (Homo sapiens, T-cell) is less than 0.5 µM.

`Cc1cnc(Nc2ccc(N3CCN(C(=O)OC(C)(C)C)C(C)C3)nc2)nc1Nc1ccc2oc(=O)[nH]c2c1` (centres unmarked) [II-11, N4-(benzo[d]oxazol-2(3H)-on-5-yl)-N2-(6-(3-methyl-4-tert-butoxycarbonylpiperazin-1-yl)pyridin-3-yl)-5-methylpyrimidine-2,4-diamine]: the IC50 (Homo sapiens, T-cell) is less than 0.5 µM.

Consider `Cc1cnc(Nc2ccc(S(N)(=O)=O)cc2)nc1Nc1ccc2c(c1)oc(=O)n2C` [Compound I-64, N2-((4-aminosulfonyl)phenyl)-N4-(3-methyl-2-oxo-2,3-dihydrobenzo[d]oxazol-6-yl)-5-methylpyrimidine-2,4-diamine], for which the IC50 was more than 10 µM.

Turning to `Cc1cnc(Nc2cc(F)c(OC(C)(C)C(N)=O)c(F)c2)nc1Nc1ccc2oc(=O)[nH]c2c1` [Compound I-395, N2-[4-(1-aminocarbonyl-1-methyl)ethoxy-3,5-difluoro]phenyl-5-methyl-N4-(2-oxo-2,3-dihydro-1,3-benzoxazol-5-yl)-2,4-pyrimidinediamine], the IC50 is less than 0.5 µM.

With `Cc1cnc(Nc2cc(Cl)c(OC(F)F)c(Cl)c2)nc1Nc1ccc2oc(=O)[nH]c2c1` [Compound I-348, N2-(3,5-dichloro-4-difluoromethoxy)phenyl-5-methyl-N4-(2-oxo-2,3-dihydro-1,3-benzoxazol-5-yl)-2,4-pyrimidinediamine], the IC50 was less than 0.5 µM.

Consider `Cc1ccc(Nc2ncc(C)c(Nc3ccc4oc(=O)[nH]c4c3)n2)cc1Cl` [Compound I-364, N2-(3-chloro-4-methyl)phenyl-5-methyl-N4-(2-oxo-2,3-dihydro-1,3-benzoxazol-5-yl)-2,4-pyrimidinediamine], for which the 50% inhibitory concentration (IC50) was less than 0.5 µM.

As for `Cc1cnc(Nc2ccc3c(c2)CN(C)C3)nc1Nc1ccc2oc(=O)[nH]c2c1` [III-4, N4-(benzo[d]oxazol-2(3H)-on-5-yl)-N2-(2-methylisoindolin-5-yl)-5-methylpyrimidine-2,4-diamine], the concentration for half-maximal inhibition (IC50) (Homo sapiens, T-cell) is less than 0.5 µM.

In the case of `Cc1cnc(Nc2cnc(N3CCN4CCC[C@H]4C3)c(F)c2)nc1Nc1ccc2oc(=O)[nH]c2c1` [II-112, N4-(benzo[d]oxazolin-2(3H)-one-5-yl)-N2-{2-[(8S)-1,4-diazabicyclo[4.3.0]nonane-1-yl]-3-fluoropyridine-5-yl}-5-methyl-2,4-pyrimidinediamine], the IC50 is less than 0.5 µM.

As to `Cc1cc(Nc2ncc(C)c(Nc3ccc4oc(=O)[nH]c4c3)n2)cnc1C` [II-153, N2-(2,3-dimethylpyridin-5-yl)-5-methyl-N4-(2-oxo-2,3-dihydro-1,3-benzoxazol-5-yl)-2,4-pyrimidinediamine], the IC50 (Homo sapiens, T-cell) is less than 0.5 µM.

With `COc1cc(Nc2ncc(C)c(Nc3ccc4oc(=O)[nH]c4c3)n2)cc(C(=O)N2CCOCC2)c1` [Compound I-254, 5-(2-(3-methoxy-5-(morpholine-4-carbonyl)phenylamino)-5-methylpyrimidin-4-ylamino)benzo[d]oxazol-2(3H)-one], the IC50 (Homo sapiens, T-cell) is less than 0.5 µM.

For the compound `Cc1cnc(Nc2ccc(N(C)[C@H]3CCCNC3)nc2)nc1Nc1ccc2oc(=O)[nH]c2c1` [II-103, (S)-5-(5-methyl-2-(6-(methyl(piperidin-3-yl)amino)pyridin-3-ylamino)pyrimidin-4-ylamino)benzo[d]oxazol-2(3H)-one], the IC50 (Homo sapiens, T-cell) is less than 0.5 µM.

As to `Cc1cnc(Nc2cccc(OC(C)(C)C#N)c2)nc1Nc1ccc2oc(=O)[nH]c2c1` [Compound I-342, N2-[3-(1-cyano-1-methyl)ethoxy]phenyl-5-methyl-N4-(2-oxo-2,3-dihydro-1,3-benzoxazol-5-yl)-2,4-pyrimidinediamine], the IC50 is less than 0.5 µM.

With `Cc1cnc(Nc2cc(F)cc(F)c2)nc1Nc1ccc2oc(=O)[nH]c2c1` [Compound I-359, N2-(3,5-difluoro)phenyl-5-methyl-N4-(2-oxo-2,3-dihydro-1,3-benzoxazol-5-yl)-2,4-pyrimidinediamine], the IC50 is less than 0.5 µM.

For the compound `COc1cc(C)cc(Nc2ncc(C)c(Nc3cc(C)c4oc(=O)n(COP(=O)(O)O)c4c3)n2)c1` [Compound I-536, Sodium (5-(2-(3-methoxy-5-methylphenylamino)-5-methylpyrimidin-4-ylamino)-7-methyl-2-oxobenzo[d]oxazol-3 (2H)-yl)methyl phosphate], the IC50 (Homo sapiens, T-cell) was in the range of 5 to 10 µM.

Take `Cc1cnc(Nc2ccc(C#N)cc2)nc1Nc1ccc2[nH]c(=O)[nH]c2c1` [Compound I-29, N4-(benzimidazolin-2-on-5-yl)-N2-(4-cyanophenyl)-5-methylpyrimidine-2,4-diamine]: the IC50 is more than 10 µM.

On to `Cc1cnc(Nc2cc(C#N)cc(OC(F)F)c2)nc1Nc1ccc2oc(=O)[nH]c2c1` [Compound I-478, N2-(3-cyano-5-difluoromethoxy)phenyl-5-methyl-N4-(2-oxo-2,3-dihydro-1,3-benzoxazol-5-yl)-2,4-pyrimidinediamine], for which the IC50 is less than 0.5 µM.

For the compound `CCOC(=O)N1CCN(c2cccc(Nc3ncc(C)c(Nc4ccc5oc(=O)[nH]c5c4)n3)c2)CC1` [Compound I-346, N2-[3-(4-ethoxycarbonyl)piperazino]phenyl-5-methyl-N4-(2-oxo-2,3-dihydro-1,3-benzoxazol-5-yl)-2,4-pyrimidinediamine], the IC50 was less than 0.5 µM.

Turning to `Cc1ccc(Nc2ncc(C)c(Nc3ccc4oc(=O)[nH]c4c3)n2)cc1OC(C)(C)C(N)=O` [Compound I-392, N2-[3-(1-aminocarbonyl-1-methyl)ethoxy-4-methyl]phenyl-5-methyl-N4-(2-oxo-2,3-dihydro-1,3-benzoxazol-5-yl)-2,4-pyrimidinediamine], the IC50 is less than 0.5 µM.

Take `Cc1cnc(Nc2cccc(C(F)(F)F)c2C)nc1Nc1ccc2oc(=O)[nH]c2c1` [Compound I-518, 5-[5-Methyl-2-(2-methyl-3-trifluoromethyl-phenylamino)-pyrimidin-4-ylamino]-3H-benzooxazol-2-one]: for the setting “Homo sapiens, T-cell”, the IC50 is less than 0.5 µM.

For `COc1cc(Nc2ncc(C)c(Nc3ccc4oc(=O)n(COP(=O)(OC(C)(C)C)OC(C)(C)C)c4c3)n2)cc(C(F)(F)F)c1` [Compound I-356, N4-{3-[bis(1,1-dimethylethoxy)]phosphinyloxymethyl-2-oxo-2,3-dihydro-1,3-benzoxazol-5-yl}-N2-(3-methoxy-5-trifluoromethyl)phenyl-5-methyl-2,4-pyrimidinediamine], the IC50 lay within 5 to 10 µM.

In the case of `Cc1cnc(Nc2ccc(OC(F)F)c(C(F)F)c2)nc1Nc1ccc2oc(=O)[nH]c2c1` [Compound I-442, 5-(2-(4-(difluoromethoxy)-3-(difluoromethyl)phenylamino)-5-methylpyrimidin-4-ylamino)benzo[d]oxazol-2(3H)-one formate salt], the IC50 (Homo sapiens, T-cell) is less than 0.5 µM.

As for `Cc1cnc(Nc2ccc3cnccc3c2)nc1Nc1ccc2oc(=O)[nH]c2c1` [IV-53, 5-[2-(Isoquinolin-6-ylamino)-5-methyl-pyrimidin-4-ylamino]-3H-benzooxazol-2-one], the IC50 (Homo sapiens, T-cell) lay within 5 to 10 µM.

Turning to `COc1cc(Nc2ncc(C)c(Nc3ccc4oc(=O)[nH]c4c3)n2)cc(C(C)=O)c1` [Compound I-229, 5-(2-(3-acetyl-5-methoxyphenylamino)-5-methylpyrimidin-4-ylamino)benzo[d]oxazol-2(3H)-one], for the setting “Homo sapiens, T-cell”, the IC50 is less than 0.5 µM.

With `Cc1cnc(Nc2cnc(C3CC4CCC(C3)N4)c(C)c2)nc1Nc1ccc2oc(=O)[nH]c2c1` (centres unmarked) [II-66, 5-(2-(6-(8-aza-bicyclo[3.2.1]octan-3-yl)-5-methylpyridin-3-ylamino)-5-methylpyrimidin-4-ylamino)benzo[d]oxazol-2(3H)-one], the IC50 (Homo sapiens, T-cell) is 0.5 to 5 µM.

Regarding `Cc1cnc(Nc2ccc(N3CCC[C@@H](N(C)C(=O)OC(C)(C)C)C3)nc2)nc1Nc1ccc2oc(=O)[nH]c2c1` [II-91, (R)-tert-butyl methyl(1-(5-(5-methyl-4-(2-oxo-2,3-dihydrobenzo[d]oxazol-5-ylamino)pyrimidin-2-ylamino)pyridin-2-yl)piperidin-3-yl)carbamate], the IC50 (Homo sapiens, T-cell) was less than 0.5 µM.
